Data on 20 compounds can be found in US11878975B2, “Substituted indole compounds useful as TLR inhibitors” (BRISTOL-MYERS SQUIBB COMPANY, priority 2017, dated 2024).

Common to all, as to assay type: cell-based
Assay [1] addresses T1, human TLR9 (Homo sapiens, UniProt Q9NR96).
T1 construct: host or cells: HEK-Blue cells
T1 sequence (Q9NR96 26-1032): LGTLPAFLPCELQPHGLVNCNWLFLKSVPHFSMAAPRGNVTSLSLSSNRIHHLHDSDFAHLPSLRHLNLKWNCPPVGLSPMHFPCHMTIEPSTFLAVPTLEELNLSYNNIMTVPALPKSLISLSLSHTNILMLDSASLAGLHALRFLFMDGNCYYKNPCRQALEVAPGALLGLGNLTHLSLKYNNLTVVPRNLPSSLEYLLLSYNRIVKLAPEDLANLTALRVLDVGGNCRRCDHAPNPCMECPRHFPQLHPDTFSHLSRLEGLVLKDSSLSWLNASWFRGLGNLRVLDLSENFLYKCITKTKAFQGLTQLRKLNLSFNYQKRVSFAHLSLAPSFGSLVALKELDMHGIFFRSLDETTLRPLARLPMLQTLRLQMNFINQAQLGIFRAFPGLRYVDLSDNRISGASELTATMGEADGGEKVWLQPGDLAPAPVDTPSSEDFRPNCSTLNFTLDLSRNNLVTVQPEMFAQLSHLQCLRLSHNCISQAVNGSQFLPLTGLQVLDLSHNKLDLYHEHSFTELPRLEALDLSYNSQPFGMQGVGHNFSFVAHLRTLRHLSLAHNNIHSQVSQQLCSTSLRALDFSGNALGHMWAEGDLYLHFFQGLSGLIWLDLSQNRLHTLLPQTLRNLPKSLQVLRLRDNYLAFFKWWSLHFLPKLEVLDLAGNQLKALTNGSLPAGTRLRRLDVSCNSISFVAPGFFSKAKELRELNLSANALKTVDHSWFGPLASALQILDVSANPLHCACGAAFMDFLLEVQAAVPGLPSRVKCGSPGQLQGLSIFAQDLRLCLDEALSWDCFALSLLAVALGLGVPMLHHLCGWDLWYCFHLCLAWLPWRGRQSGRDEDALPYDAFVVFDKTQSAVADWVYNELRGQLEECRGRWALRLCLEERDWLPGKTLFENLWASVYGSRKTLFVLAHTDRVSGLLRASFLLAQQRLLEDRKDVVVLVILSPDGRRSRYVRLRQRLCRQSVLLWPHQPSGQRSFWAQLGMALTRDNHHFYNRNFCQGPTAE
The assay is described as follows: TLR9 inhibition reporter assay (HEK-Blue cells, SEAP reporter, ODN2006 stimulation). The settings on record: HEK-Blue cells overexpressing human TLR9, SEAP reporter, ODN2006 5 nM. The essentials:
(§1)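 Percent inhibition is derived from SEAP signal, scaled between agonist-plus-DMSO wells and wells given a known inhibitor. Test compounds (0.05 nM–50 μM) are pre-incubated 30 min at room temperature before agonist addition (TLR7: 7.5 μM gardiquimod; TLR8: 15.9 μM R848; TLR9: 5 nM ODN2006) and 22 h culture at 37 °C.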
(In general: Reporter assays use an easily measured gene product as a stand-in for the process of interest.)

Assay [2] has as its target T2, human TLR8 (Homo sapiens, UniProt Q9NR97).
T2 construct: host or cells: HEK-Blue cells
T2 sequence (Q9NR97 27-1041): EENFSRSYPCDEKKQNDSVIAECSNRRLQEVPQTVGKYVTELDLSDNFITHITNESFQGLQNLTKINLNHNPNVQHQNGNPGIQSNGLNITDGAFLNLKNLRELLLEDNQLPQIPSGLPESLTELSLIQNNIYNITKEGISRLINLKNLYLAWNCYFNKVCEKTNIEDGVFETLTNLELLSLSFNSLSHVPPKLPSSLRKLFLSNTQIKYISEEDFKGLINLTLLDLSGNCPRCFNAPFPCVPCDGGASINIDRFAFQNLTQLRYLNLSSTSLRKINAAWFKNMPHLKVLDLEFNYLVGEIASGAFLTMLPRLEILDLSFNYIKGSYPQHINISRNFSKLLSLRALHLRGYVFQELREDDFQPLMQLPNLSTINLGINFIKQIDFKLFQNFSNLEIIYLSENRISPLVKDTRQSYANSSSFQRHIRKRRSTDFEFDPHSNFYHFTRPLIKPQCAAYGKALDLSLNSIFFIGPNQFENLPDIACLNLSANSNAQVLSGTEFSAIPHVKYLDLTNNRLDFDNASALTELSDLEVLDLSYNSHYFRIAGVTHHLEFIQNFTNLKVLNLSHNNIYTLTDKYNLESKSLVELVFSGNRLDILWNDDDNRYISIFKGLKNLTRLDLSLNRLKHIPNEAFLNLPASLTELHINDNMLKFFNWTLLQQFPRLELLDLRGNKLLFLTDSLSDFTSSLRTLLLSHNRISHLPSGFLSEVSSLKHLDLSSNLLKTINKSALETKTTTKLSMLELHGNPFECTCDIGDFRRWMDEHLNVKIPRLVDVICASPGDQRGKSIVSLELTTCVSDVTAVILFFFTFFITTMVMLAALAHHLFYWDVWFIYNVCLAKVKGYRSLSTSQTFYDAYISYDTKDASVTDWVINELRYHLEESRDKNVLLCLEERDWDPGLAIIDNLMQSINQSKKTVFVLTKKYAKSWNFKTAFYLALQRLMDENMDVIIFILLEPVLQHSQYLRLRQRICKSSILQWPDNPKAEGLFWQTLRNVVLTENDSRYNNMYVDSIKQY
Nature of the assay: TLR8 inhibition reporter assay (HEK-Blue cells, SEAP reporter, R848 stimulation). The note with it: HEK-Blue cells overexpressing human TLR8, SEAP reporter, R848 15.9 μM. The procedure, abridged:
as §1

In assay [3] the target is T3, human TLR7 (Homo sapiens, UniProt Q9NYK1).
T3 construct: host or cells: HEK-Blue cells
T3 sequence (Q9NYK1 27-1049): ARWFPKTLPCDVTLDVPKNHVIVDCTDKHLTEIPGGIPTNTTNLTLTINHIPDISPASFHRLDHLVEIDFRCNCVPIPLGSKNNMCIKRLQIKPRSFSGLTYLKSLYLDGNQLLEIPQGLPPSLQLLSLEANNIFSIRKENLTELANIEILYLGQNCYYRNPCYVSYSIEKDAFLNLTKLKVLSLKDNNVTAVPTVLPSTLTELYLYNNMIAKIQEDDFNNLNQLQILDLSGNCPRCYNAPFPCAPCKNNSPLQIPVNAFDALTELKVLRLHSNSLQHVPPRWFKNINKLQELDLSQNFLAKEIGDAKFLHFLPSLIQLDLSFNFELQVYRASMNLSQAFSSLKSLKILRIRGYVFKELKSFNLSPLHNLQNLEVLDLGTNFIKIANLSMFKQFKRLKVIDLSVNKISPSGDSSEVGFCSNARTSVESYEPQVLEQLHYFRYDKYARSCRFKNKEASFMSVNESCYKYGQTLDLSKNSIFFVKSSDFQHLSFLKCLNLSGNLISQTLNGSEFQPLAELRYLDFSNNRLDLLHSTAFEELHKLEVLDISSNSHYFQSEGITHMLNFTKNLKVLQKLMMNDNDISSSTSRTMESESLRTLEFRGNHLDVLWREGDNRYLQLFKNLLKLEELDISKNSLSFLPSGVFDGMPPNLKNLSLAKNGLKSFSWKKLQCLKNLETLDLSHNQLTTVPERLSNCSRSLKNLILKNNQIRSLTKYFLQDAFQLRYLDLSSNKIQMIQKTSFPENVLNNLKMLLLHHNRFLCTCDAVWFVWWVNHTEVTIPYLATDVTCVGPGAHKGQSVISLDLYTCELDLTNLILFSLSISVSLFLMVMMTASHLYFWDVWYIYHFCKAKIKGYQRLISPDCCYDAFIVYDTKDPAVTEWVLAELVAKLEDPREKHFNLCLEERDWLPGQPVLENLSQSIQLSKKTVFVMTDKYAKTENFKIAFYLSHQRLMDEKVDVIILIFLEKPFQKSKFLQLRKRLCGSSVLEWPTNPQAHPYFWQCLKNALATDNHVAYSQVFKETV
The assay is described as follows: TLR7 inhibition reporter assay (HEK-Blue cells, SEAP reporter, gardiquimod stimulation). The settings on record: HEK-Blue cells overexpressing human TLR7, SEAP reporter, gardiquimod 7.5 μM. The essentials: as §1

As a reminder, the IC50 is the concentration that gives 50% inhibition. Low readings indicate inhibition by little substance, high ones a need for much substance. As for `CCN(C)C1CCC(c2ccc3[nH]c(-c4cc(OC)c5ncnn5c4)c(C(C)C)c3c2)CC1` (single isomer, unassigned) [Example 65], the IC50 in assay [1] was 1150 nM; in assay [2], 1.3 nM; in assay [3], 0.23 nM.
The like results for `Cc1c(-c2[nH]c3ccc(CC4CN(CCS(C)(=O)=O)C4)cc3c2C(C)C)cn2ncnc2c1C` [Example 437] were, in that order, 4720 nM, 4.2 nM and 8 nM.
The like results for `Cc1cc(-c2[nH]c3ccc(C4CN(C5COC5)CCO4)cc3c2C(C)C)cn2ncnc12` (stereo not drawn) [Example 289, 2-(3-isopropyl-2-(8-methyl-[1,2,4]triazolo[1,5-a]pyridin-6-yl)-1H-indol-5-yl)-4-(oxetan-3-yl)morpholine] were, in that order, over 50000 nM, 24 nM and 9 nM.
For `COc1cc(-c2[nH]c3ccc(CCC4CNC4)cc3c2C(C)C)cn2ncnc12` [Example 440], the values for the concentration for half-maximal inhibition (IC50) in assay [1], in assay [2] and in assay [3] were 1480 nM, 16 nM and 4 nM, respectively.
The like results for `Cc1cc(-c2[nH]c3ccc(C4CCCCC4)cc3c2C(C)C)cn(C)c1=O` [Example 470] were, in that order, 18300 nM, 3130 nM and 568 nM.
The like results for `CNC(=O)CN1CC(c2ccc3[nH]c(-c4cn5ncnc5c(C)c4C)c(C(C)C)c3c2)C1` [Example 552] were, in that order, 5570 nM, 3.4 nM and 4 nM.
As to `Cc1cc(-c2[nH]c3ccc(C4CCCN(C(=O)C5(C)CC5)C4)cc3c2C(C)C)cc(C)n1` (stereo not drawn) [Example 199], the IC50 in assay [1] is 36900 nM; in assay [2] it was 427 nM; in assay [3], 89 nM.
The like results for `Cc1c(-c2[nH]c3ccc(C4CCC(NC5COC5)CC4)cc3c2C(C)C)cn2cnnc2c1C` (stereo not drawn) [Example 524] were, in that order, 11100 nM, 21 nM and 12 nM.
The like results for `CCc1c(-c2ccc(OC)c(OC)c2)[nH]c2ccc(CC3CCCN3)cc12` (stereo not drawn) [Example 419] were, in that order, 3760 nM, 27 nM and 418 nM.
The like results for `COc1cc(-c2[nH]c3ccc(C4CCCNC4)cc3c2C(C)C)cn2ncnc12` (stereo not drawn) [Example 181, 6-(3-isopropyl-5-(piperidin-3-yl)-1H-indol-2-yl)-8-methoxy-[1,2,4]triazolo[1,5-a]pyridine] were, in that order, 1210 nM, 2.8 nM and 0.4 nM.
Consider `COc1cc(-c2[nH]c3ccc(C4CCC(N5CCNC(=O)C5)CC4)cc3c2C(C)C)cn2ncnc12` (stereo not drawn) [Example 78], for which the concentration for half-maximal inhibition (IC50) in assay [1] is 16800 nM; in assay [2], 32 nM; in assay [3], 3 nM.
The like results for `Cc1cc(-c2[nH]c3ccc(C4CCCN(C(=O)C5C(C)(C)C5(C)C)C4)cc3c2C(C)C)cc(C)n1` (stereo not drawn) [Example 198] were, in that order, 23800 nM, 1100 nM and 384 nM.
The like results for `COc1cc(-c2[nH]c3ccc(C4CCC(N5CCNC(=O)C5)CC4)cc3c2C(C)C)cn2ncnc12` (stereo not drawn) [Example 71] were, in that order, 4410 nM, 2.7 nM and 0.68 nM.
Consider `Cc1cc(-c2[nH]c3ccc(C4CN(CC5(C)COC5)CCO4)cc3c2C(C)C)cn2ncnc12` (stereo not drawn) [Example 292], for which the IC50 in assay [1] turned out to be 34200 nM; in assay [2] it was 2.8 nM; in assay [3], 22 nM.
Take `Cc1cc(-c2[nH]c3ccc(C4CCC(NC5(C)COC5)CC4)cc3c2C(C)C)cn2ncnc12` (single isomer, unassigned) [Example 47]: the IC50 in assay [1] was determined as 4650 nM; in assay [2] it was 7.5 nM; in assay [3] it was 2 nM.
The like results for `CNC(=O)CN1CC(c2ccc3[nH]c(-c4cn5ncnc5c(C)c4C)c(C(C)C)c3c2)OCC1(C)C` (stereo not drawn) [Example 388] were, in that order, over 50000 nM, 41 nM and 37 nM.
For `COc1cc(-c2[nH]c3ccc(C4CCC(NC5COC5)CC4)cc3c2C(C)C)cn2ncnc12` (stereo not drawn) [Example 64], the IC50 in assay [1] turned out to be 3030 nM; in assay [2] it was 0.87 nM; in assay [3] it was 0.15 nM.
For the compound `Cc1cc(-c2[nH]c3ccc(C4CN5CCC4CC5)cc3c2C(C)C)cc(C)n1` (single isomer, unassigned) [Example 363, 3-(2-(2,6-dimethylpyridin-4-yl)-3-isopropyl-1H-indol-5-yl)quinuclidine], the half-maximal inhibitory concentration (IC50) in assay [1] came out at 438 nM; in assay [2] it was 5.3 nM; in assay [3], 2 nM.
The like results for `Cc1cc(-c2[nH]c3ccc([C@H]4C[C@H]4C(=O)N4CC5CC4CN5)cc3c2C(C)C)ccn1` (stereo partly drawn) [Example 454] were, in that order, 363 nM, 5.5 nM and 96 nM.
With `COc1cc(-c2[nH]c3ccc(C4CCC(N5CC(O)C5)CC4)cc3c2C(C)C)cn2ncnc12` (single isomer, unassigned) [Example 20], the 50% inhibitory concentration (IC50) amounted to 346 nM in assay [1], 0.81 nM in assay [2] and 0.3 nM in assay [3].
